Measurements: patent US11512090B2, “Muscarinic acetylcholine M1 receptor antagonists” (PIPELINE THERAPEUTICS, INC., priority 2018, dated 2022)

Tests used:
M3 = M3 (Homo sapiens, UniProt P20309); experiment: In vitro functional assay of muscarinic acetylcholine receptor activity, M3; format: cell-based; settings: antagonist IC50 at M3; read-out: M3 IC50
Description: [The procedure below names another target; the source lists this target under the same test.] (§1) CHO-K1 cells stably expressing human M1 receptor with Aequorin (Perkin Elmer) were grown in F12 media, 10% FBS with 0.4 mg/mL geneticin and […]. Cells were grown to confluence and frozen down to be assayed at a later date. On the day of the experiment cells were thawed in a 37° C. water bath, resuspended in DMEM/HAM's F12 with HEPES (Invitrogen)+0.1% protease-free BSA (assay buffer), and spun down to remove freezing media. After centrifugation, supernatant was removed and 12 mL of assay buffer was added. Coelenterazine h (Promega) was added to the cells at a final concentration of 5 uM and incubated for 4 hours at room temperature in the dark. Compound master plate-96 deep well (Corning) were formatted in a 8-point DRC in assay buffer with 0.2% DMSO at a starting concentration of 60 uM (2×). After 4 hours of incubation, cells were plated at a concentration of 5×10^5 cells/well in 96 well white-walled, tissue culture-treated, clear-bottom plates (VWR). Compounds were added to the daughter plate, and cells plus compound were incubated at room temperature for 30 minutes in the dark.
(§2) Calcium flux was measured using the FlexStation 3 (Molecular Devices). To measure the antagonist dose-response, the EC80 of Acetylcholine was injected to the daughter plate using the automated compound transfer function of the Flex Station, and the increase in luminescence was measured over time. Antagonist activity was analyzed as a concentration dependent decrease in the EC80 acetylcholine response. Dose response curves were generated using Prism (GraphPad Software). The IC50 of the compounds was calculated from the dose response curve.

M2 = molecular target: T1, M2 (Homo sapiens, UniProt P08172); experiment: In vitro functional assay of muscarinic acetylcholine receptor activity, M2; format: cell-based; settings: antagonist IC50 at M2; read-out: M2 IC50
T1 sequence (P08172 1-466): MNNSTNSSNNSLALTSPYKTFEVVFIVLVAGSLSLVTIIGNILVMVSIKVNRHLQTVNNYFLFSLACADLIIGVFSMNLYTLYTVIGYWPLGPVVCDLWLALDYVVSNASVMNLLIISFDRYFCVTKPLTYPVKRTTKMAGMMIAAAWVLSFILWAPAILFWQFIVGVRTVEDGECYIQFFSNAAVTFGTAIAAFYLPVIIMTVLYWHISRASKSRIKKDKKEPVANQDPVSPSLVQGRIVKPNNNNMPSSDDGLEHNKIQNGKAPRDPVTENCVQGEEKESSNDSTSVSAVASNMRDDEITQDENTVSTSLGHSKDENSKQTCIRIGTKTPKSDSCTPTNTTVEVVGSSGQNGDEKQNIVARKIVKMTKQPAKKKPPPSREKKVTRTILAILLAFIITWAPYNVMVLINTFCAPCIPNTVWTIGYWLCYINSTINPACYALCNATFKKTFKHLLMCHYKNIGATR
Description: [The procedure below names another target; the source lists this target under the same test.] as §1, §2

Sequence of M3 (P20309 whole entry): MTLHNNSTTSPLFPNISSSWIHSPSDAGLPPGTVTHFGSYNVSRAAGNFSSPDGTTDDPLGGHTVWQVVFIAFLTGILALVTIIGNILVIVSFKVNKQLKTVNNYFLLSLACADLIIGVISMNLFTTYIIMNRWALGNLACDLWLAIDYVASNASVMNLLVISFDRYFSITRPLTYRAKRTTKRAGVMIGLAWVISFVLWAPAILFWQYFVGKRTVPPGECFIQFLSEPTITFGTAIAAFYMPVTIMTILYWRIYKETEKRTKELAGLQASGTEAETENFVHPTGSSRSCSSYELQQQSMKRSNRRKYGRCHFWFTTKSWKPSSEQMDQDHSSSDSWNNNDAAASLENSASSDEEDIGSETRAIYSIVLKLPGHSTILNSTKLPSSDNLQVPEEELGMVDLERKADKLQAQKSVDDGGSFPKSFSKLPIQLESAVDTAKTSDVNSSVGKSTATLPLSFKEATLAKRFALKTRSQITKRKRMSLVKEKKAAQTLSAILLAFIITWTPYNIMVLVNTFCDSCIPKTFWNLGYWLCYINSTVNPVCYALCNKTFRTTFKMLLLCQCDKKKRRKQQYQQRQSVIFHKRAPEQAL

Row | SMILES | IC50 (M3) | IC50 (M2)
1 | Cc1cc(F)cnc1N1CCN(C(=O)CCCc2cccc3ncccc23)[C@@H](C)C1 [Example 6, 1-[(2S)-4-(5-fluoro-3-methylpyridin-2-yl)-2-methylpiperazin-1-yl]-4-(quinolin-5-yl)butan-1-one] | 1000 to 10000 nM | 1000 to 10000 nM
2 | Cc1cc(F)cnc1N1CCN(C(=O)CCCc2cccc3nc(N)sc23)[C@@H](C)C1 [Example 20, 4-(2-amino-1,3-benzothiazol-7-yl)-1-[(2S)-4-(5-fluoro-3-methylpyridin-2-yl)-2-methylpiperazin-1-yl]butan-1-one] | 1000 to 10000 nM | 1000 to 10000 nM
3 | O=C(CCCc1cccc2ncccc12)N1CCN(c2ccc(F)cn2)CC1 [Example 51, 1-(4-(5-fluoropyridin-2-yl)piperazin-1-yl)-4-(quinolin-5-yl)butan-1-one] | > 10000 nM | 1000 to 10000 nM
4 | CC1CN(c2ccc(F)cn2)CCN1C(=O)CCCc1cccc2ncccc12 (centres unmarked) [Example 58, 1-(4-(5-fluoropyridin-2-yl)-2-methylpiperazin-1-yl)-4-(quinolin-5-yl)butan-1-one] | 1000 to 10000 nM | 1000 to 10000 nM
5 | Cc1cc(F)cnc1N1CCN(C(=O)CCCc2cccc3ncccc23)C(C)C1 (centres unmarked) [Example 59, 1-(4-(5-fluoro-3-methylpyridin-2-yl)-2-methylpiperazin-1-yl)-4-(quinolin-5-yl)butan-1-one] | 100 to 1000 nM | < 100 nM
6 | CC1CN(C(=O)CCCc2cccc3ncccc23)CCN1c1ccc(F)cn1 (centres unmarked) [Example 61, 1-(4-(5-fluoropyridin-2-yl)-3-methylpiperazin-1-yl)-4-(quinolin-5-yl)butan-1-one] | 1000 to 10000 nM | 1000 to 10000 nM
7 | Cc1cc(F)cnc1N1CCN(C(=O)CCCc2cccc3ncccc23)CC1C (centres unmarked) [Example 62, 1-(4-(5-fluoro-3-methylpyridin-2-yl)-3-methylpiperazin-1-yl)-4-(quinolin-5-yl)butan-1-one] | 1000 to 10000 nM | 100 to 1000 nM
8 | Cc1cc(F)cnc1N1CCN(C(=O)CCCc2cccc3ncccc23)[C@H](C)C1 [Example 66, (R)-1-(4-(5-fluoro-3-methylpyridin-2-yl)-2-methylpiperazin-1-yl)-4-(quinolin-5-yl)butan-1-one] | 100 to 1000 nM | 100 to 1000 nM

Now from value to compound:

Row | IC50 (M3) | IC50 (M2) | SMILES
9 | 1000 to 10000 nM | 1000 to 10000 nM | C[C@@H]1CN(c2ncc(F)cc2Cl)CCN1C(=O)CCCc1cccc2ncccc12 [Example 80, (R)-1-(4-(3-chloro-5-fluoropyridin-2-yl)-2-methylpiperazin-1-yl)-4-(quinolin-5-yl)butan-1-one]
10 | 1000 to 10000 nM | 1000 to 10000 nM | Cc1cc(F)cnc1N1CCN(C(=O)CCCc2cccc3ncoc23)[C@@H](C)C1 [Example 83, (S)-4-(benzo[d]oxazol-7-yl)-1-(4-(5-fluoro-3-methylpyridin-2-yl)-2-methylpiperazin-1-yl)butan-1-one]
11 | 1000 to 10000 nM | > 10000 nM | N#Cc1cc(N2CCN(C(=O)CCS(=O)(=O)c3cccc4ncsc34)CC2)ccn1 [Example 100, 4-(4-(3-(benzo[d]thiazol-7-ylsulfonyl)propanoyl)piperazin-1-yl)picolinonitrile]
12 | 1000 to 10000 nM | 1000 to 10000 nM | CC1CN(C(=O)CCS(=O)(=O)c2cccc3ncsc23)CC(C)N1c1ccc(C#N)cn1 (centres unmarked) [Example 128, 6-{4-[3-(1,3-benzothiazole-7-sulfonyl)propanoyl]-2,6-dimethylpiperazin-1-yl}pyridine-3-carbonitrile]
13 | > 10000 nM | > 10000 nM | CC1CN(c2ccc(C#N)cn2)CC(C)N1C(=O)CCS(=O)(=O)c1cccc2ncsc12 (centres unmarked) [Example 134, 6-{4-[3-(1,3-benzothiazole-7-sulfonyl)propanoyl]-3,5-dimethylpiperazin-1-yl}pyridine-3-carbonitrile]
